Assay results as given in paper PMC7719179, “Small molecule inhibition of Dynamin-dependent endocytosis targets multiple niche signals and impairs leukemia stem cells” (Nature Communications, 2020).
“And” between values parts separate entries of the source, which are not always exact repeats. Equal values may be shown once.

Experiments:
[1] = test system: pre-LSC activity of Lmo2^Tg DN3a thymocytes; test: Transplantation of in vitro treated Lmo2^Tg DN3a thymocytes (fold expansion, engraftment); type: in vivo, mouse; settings: thymus of recipients 6 weeks post-transplantation of Lmo2^Tg DN3a thymocytes treated in vitro (Dynole 34-2 0.2 μM, Ruxolitinib 0.2 μM, DAPT 0.1 μM); individual recipients
Method: Single-cell suspension of murine thymus cells were intravenously injected into sublethally irradiated (650 Rads) isogenic Ly5.1 (Cd45.1) mice. Fold expansion was calculated by dividing the absolute output number of donor-derived DN3a cells harvested at the experimental endpoint by the respective number of DN3a thymocytes injected in each recipient. Limiting dilution transplantations were performed as described, by injecting various doses (10^1 to 10^6) of thymocytes per recipient, and mice were scored positive when T-cell lineage reconstitution assessed 6 weeks after transplantation was >1%. Leukemia-propagating cell frequency was calculated by applying Poisson statistics using the ELDA: Extreme Limiting Dilution Analysis software (Walter and Eliza Hall Institute Bioinformatics, Parkville VIC, Australia)[96]. Limiting dilution transplantations were performed independently from any other transplantation assays, using thymocytes from three different Lmo2^Tg mice for each cohort. Kaplan–Meier survival and statistical analysis were performed using GraphPad Prism. 6.0 software (GraphPad Software Inc, San Diego CA, USA).

[2] = test system: pStat5 in leukemic DN3a cells from primary Lmo2^Tg T-ALL; test: IL-7-induced pStat5 in leukemic DN3a cells from primary Lmo2^Tg T-ALL; type: cell-based, mouse
Method: (§1) Phosphoflow analysis was performed as previously described. Briefly, 2 × 10^6 cells stained for surface markers were subsequently resuspended into PBS 1× + 4% v/v paraformaldehyde and incubated for 10 min at 4 °C for fixation. Fixed cells were washed twice using PBS 1×, then resuspended in pre-chilled at −20 °C Perm Buffer III (BD Pharmingen) and incubated 30 min at 4 °C for permeabilization. Cells were washed twice using PBS 1× and incubated overnight at 4 °C in PBS 1× + 2% v/v fetal calf serum (FCS) with Cell Signalling purified antibodies (Genesearch Pty Ltd, Arundel QLD, Australia) against pSTAT5 (Tyr694; #9359), phospho-p38 MAPK (Thr180/Tyr182; #4511), phospho-p44/42 (Erk1/2; #9102), phospho-S6 (Ser235/236; #4856) and phospho-Akt (Ser473; #9271) or isotype control. For intracellular HES1 detection, cells stained for surface markers were subsequently fixed and permeabilized using the BD Cytofix/Cytoperm^TM Kit and incubated overnight at 4 °C in PBS 1× + 2% v/v FCS with a purified antibody against HES1 (D6PU; #11988, Cell Signalling) or isotype control. After staining with primary antibodies for phosphoflow or intracellular detection, cells were incubated in permeabilization buffer with donkey Alexa Fluor 488-conjugated anti-rabbit secondary antibody (A-21206, lot #1910751, Molecular Probes, Invitrogen) or goat Alexa Fluor 546-conjugated anti-rabbit secondary antibody (A-11035, lot #1904467, Molecular Probes, Invitrogen) for 1 h on ice, and washed twice in PBS 1×. Fluorescence-activated cell sorting (FACS) analysis was performed using LSRII and LSR Fortessa cytometers, following the gating strategies described in Supplementary Fig. 11. Cell sorting was performed with a FACSAria or BD Influx.
For in vitro IL-7 stimulation assays, cells were starved in serum-free DMEM at 37 °C, then incubated with either vehicle or Dynole 34-2 or Ruxolitinib (INCB018424; #S1378, Selleckchem), or DAPT (GSI-IX; #S2215, Selleckchem) resuspended in DMSO for 1 h. Thymocytes were subsequently stimulated with 25 ng/mL IL-7 at 37 °C for 20 min and washed twice using cold PBS 1×. Cells were incubated with 25 ng/mL Rat IgG (Sigma-Aldrich Pty Ltd, Castle Hill NSW, Australia) and with a PE-conjugated antibody for detection of IL-7R (CD127) for 1 h on ice, as described in the FACS analysis section. PE-conjugated isotype was used as negative control. Cells were washed twice, fixed and phosphoflow analysis performed as described in the FACS analysis section. The analysis was performed in triplicate and the mean fluorescence intensity (MFI) observed without stimulation was reported as 100%.

[3] = test system: pStat5, Hes1, p-Erk, p-p38, p-S6, p-Akt in Lmo2^Tg DN3a cells; test: Growth factor-mediated signalling effectors in co-cultured Lmo2^Tg DN3a cells (flow cytometry); type: cell-based, mouse
Method: as §1

[4] = leukemic DN3a cells of TALL249, IL-7 stimulation
[5] = leukemic DN3a cells of TALL257, IL-7 stimulation
[6] = leukemic DN3a cells of TALL273, IL-7 stimulation
[7] = leukemic DN3a cells of TALL582, IL-7 stimulation
[8] = leukemic DN3a cells of TALL588, IL-7 stimulation
[9] = leukemic DN3a cells of TALL742, IL-7 stimulation
[10] = Supplementary Figure 2c, unstimulated and vehicle controls in the same table
[11] = Lmo2^Tg DN3a cells co-cultured on OP9-DL1 with cytokines, individual animals

Compound	Fold expansion DN3a cells [1]	pStat5 (MFI) [2, 4] [MFI]	pStat5, FOLD over unstimulated [2, 4] [fold]	pStat5 (MFI) [2, 5] [MFI]	pStat5, FOLD over unstimulated [2, 5] [fold]	pStat5 (MFI) [2, 6] [MFI]	pStat5, FOLD over unstimulated [2, 6] [fold]	pStat5 (MFI) [2, 7] [MFI]	pStat5, FOLD over unstimulated [2, 7] [fold]	pStat5 (MFI) [2, 8] [MFI]	pStat5, FOLD over unstimulated [2, 8] [fold]	pStat5 (MFI) [2, 9] [MFI]	pStat5, FOLD over unstimulated [2, 9] [fold]	Hes1 (MFI) [3, 10]	Hes1 (MFI) [3, 11]	p-Akt (MFI) [3, 11]	p-Erk (MFI) [3, 11]	p-S6 (MFI) [3, 11]	p-p38 (MFI) [3, 11]	pStat5 (MFI) [3, 11]
N#CC[C@H](C1CCCC1)n1cc(-c2ncnc3[nH]ccc23)cn1 [Ruxolitinib]	0.06 fold and 0.01 fold and 5.29 fold and 8.54 fold and 22.76 fold and 8.51 fold	2437	0.61	2111	1.36	2300	1.02	33429	0.88	3772	1.47	5460	0.96	1340 MFI and 1445 MFI and 1491 MFI	–	–	–	–	–	–
CCCCCCCCNC(=O)C(C#N)=Cc1cn(CCCN(C)C)c2ccccc12 [Dynole 34-2, 2-Cyano-N-octyl-3-(1-(3-dimethylaminopropyl)-1H-indol-3-yl)-acrylamide]	0.05 fold and 0.01 fold and 3.00 fold and 6.41 fold and 5.91 fold and 0.19 fold and 17.69 fold	3097	0.78	1676	1.08	2251	1.00	15189	0.40	2662	1.03	5864	1.03	1218 MFI and 1199 MFI and 1165 MFI	5911 MFI and 6176 MFI and 5994 MFI and 6141 MFI	1455 MFI and 2044 MFI and 1472 MFI and 1916 MFI	2822 MFI and 3661 MFI and 3448 MFI and 2830 MFI	4904 MFI and 4987 MFI and 5062 MFI and 5235 MFI	4351 MFI and 3539 MFI and 4397 MFI and 3757 MFI	2745 MFI and 2767 MFI and 2938 MFI and 3210 MFI
C[C@H](NC(=O)Cc1cc(F)cc(F)c1)C(=O)N[C@H](C(=O)OC(C)(C)C)c1ccccc1 [DAPT, N-[N-(3,5-Difluorophenacetyl)-L-alanyl]-S-phenylglycine t-butyl ester]	0.05 fold and 0.01 fold and 0.07 fold and 2.41 fold and 0.20 fold and 11.64 fold	15113	3.80	2628	1.69	2744	1.22	34040	0.89	3980	1.55	7661	1.35	1314 MFI and 1222 MFI and 1307 MFI	–	–	–	–	–	–
